Measurements from US8685970B2, “Quinolines and related analogs as sirtuin modulators” (GlaxoSmithKline, LLC, priority 2008, dated 2014).

Molecular target: T1, SIRT1 (Homo sapiens, UniProt Q96EB6)
T1 sequence (Q96EB6 1-747): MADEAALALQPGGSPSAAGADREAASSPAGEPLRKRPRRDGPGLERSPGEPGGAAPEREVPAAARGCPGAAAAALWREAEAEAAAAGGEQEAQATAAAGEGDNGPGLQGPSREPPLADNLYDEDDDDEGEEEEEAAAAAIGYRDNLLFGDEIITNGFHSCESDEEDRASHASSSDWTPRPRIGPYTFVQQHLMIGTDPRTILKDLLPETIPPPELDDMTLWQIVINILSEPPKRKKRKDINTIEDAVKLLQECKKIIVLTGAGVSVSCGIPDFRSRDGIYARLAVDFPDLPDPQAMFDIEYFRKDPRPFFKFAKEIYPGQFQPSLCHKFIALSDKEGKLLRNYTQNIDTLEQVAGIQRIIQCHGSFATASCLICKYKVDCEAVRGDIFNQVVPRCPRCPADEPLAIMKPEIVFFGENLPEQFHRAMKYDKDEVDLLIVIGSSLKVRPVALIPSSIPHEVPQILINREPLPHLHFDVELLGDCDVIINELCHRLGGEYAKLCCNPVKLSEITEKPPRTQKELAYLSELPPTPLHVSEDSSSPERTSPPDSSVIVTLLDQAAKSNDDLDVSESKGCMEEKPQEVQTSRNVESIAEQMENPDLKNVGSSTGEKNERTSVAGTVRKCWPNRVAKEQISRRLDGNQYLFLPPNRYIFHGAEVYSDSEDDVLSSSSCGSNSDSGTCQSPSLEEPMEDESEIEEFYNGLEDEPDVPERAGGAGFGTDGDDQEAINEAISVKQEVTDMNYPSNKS
Experiment: Mass spectrometry based SIRT1 deacetylation assay (activation)
Assay type: biochemical
Conditions: 10 nM SIRT1, 0.5 μM peptide substrate, 120 μM βNAD+, 25 min at 25° C.
Text: A mass spectrometry based assay was used to identify modulators of SIRT1 activity. The mass spectrometry based assay utilizes a peptide having 20 amino acid residues as follows: Ac-EE-K (biotin)-GQSTSSHSK (Ac)N1eSTEG-K(5TMR)-EE-NH2 (SEQ ID NO: 1) wherein K(Ac) is an acetylated lysine residue and Nle is a norleucine. The peptide is labeled with the fluorophore 5TMR (excitation 540 nm/emission 580 nm) at the C-terminus. The sequence of the peptide substrate is based on p53 with several modifications. In addition, the methionine residue naturally present in the sequence was replaced with the norleucine because the methionine may be susceptible to oxidation during synthesis and purification.
The mass spectrometry assay is conducted as follows: 0.5 μM peptide substrate and 120 μM βNAD^+ is incubated with 10 nM SIRT1 for 25 minutes at 25° C. in a reaction buffer (50 mM Tris-acetate pH 8, 137 mM NaCl, 2.7 mM KCl, 1 mM MgCl2, 5 mM DTT, 0.05% BSA). Test compounds may be added to the reaction as described above. The SirT1 gene is cloned into a T7-promoter containing vector and transformed into BL21(DE3). After the 25 minute incubation with SIRT1, 10 μL of 10% formic acid is added to stop the reaction. Reactions are sealed and frozen for later mass spec analysis. Determination of the mass of the substrate peptide allows for precise determination of the degree of acetylation (i.e. starting material) as compared to deacetylated peptide (product).
A control for inhibition of sirtuin activity is conducted by adding 1 μL of 500 mM nicotinamide as a negative control at the start of the reaction (e.g., permits determination of maximum sirtuin inhibition). A control for activation of sirtuin activity is conducted using 10 nM of sirtuin protein, with 1 μL of DMSO in place of compound, to determine the amount of deacetylation of the substrate at a given timepoint within the linear range of the assay. This timepoint is the same as that used for test compounds and, within the linear range, the endpoint represents a change in velocity.
For the above assay, SIRT1 protein was expressed and purified as follows. The SirT1 gene was cloned into a T7-promoter containing vector and transformed into BL21(DE3). The protein was expressed by induction with 1 mM IPTG as an N-terminal His-tag fusion protein at 18° C. overnight and harvested at 30,000×g. Cells were lysed with lysozyme in lysis buffer (50 mM Tris-HCl, 2 mM Tris[2-carboxyethyl]phosphine (TCEP), 10 μM ZnCl2, 200 mM NaCl) and further treated with sonication for 10 min for complete lysis. The protein was purified over a Ni-NTA column (Amersham) and fractions containing pure protein were pooled, concentrated and run over a sizing column (Sephadex S200 26/60 global). The peak containing soluble protein was collected and run on an Ion-exchange column (MonoQ). Gradient elution (200 mM-500 mM NaCl) yielded pure protein. This protein was concentrated and dialyzed against dialysis buffer (20 mM Tris-HCl, 2 mM TCEP) overnight. The protein was aliquoted and frozen at −80° C. until further use.
Sirtuin modulating compounds that activated SIRT1 were identified using the assay described above and are shown below in Table 1. The EC1.5 values represent the concentration of test compounds that result in 150% activation of SIRT1. The EC1.5 values for the activating compounds are represented by A (EC1.5<1.0 uM), B (EC1.5 1-25 uM), C (EC1.5>25 uM). The percent maximum fold activation is represented by A (Fold activation >200%) or B (Fold Activation <200%). “NT” indicates the compound was not tested in a particular assay.

Row | SMILES | EC1.5 (concentration of test compound that results in 150% activation of SIRT1) | % Fold Act. (percent maximum fold activation)
1 | Fc1c(-c2ccc3cccc(NCc4cccnc4)c3n2)cccc1C(F)(F)F [Compound 165] | C (EC1.5>25 uM) | –
2 | O=C(Nc1ccc(CN2CCCC2)cn1)c1cccc2ccc(-c3cccc(C(F)(F)F)c3)nc12 [Compound 285] | A (EC1.5<1.0 uM) | A (Fold activation >200%)
3 | O=C(Nc1nccs1)c1cc(F)cc2ccc(-c3cccc(C(F)(F)F)c3)nc12 [Compound 62] | C (EC1.5>25 uM) | –
4 | O=C(Nc1nc2ccccc2s1)c1cccc2ccc(-c3cccnc3)nc12 [Compound 233] | B (EC1.5 1-25 uM) | B (Fold Activation <200%)
5 | O=C(Nc1cccnc1)c1cccc2ccc(-c3cccc(N4CCOCC4)c3)nc12 [Compound 110] | A (EC1.5<1.0 uM) | A (Fold activation >200%)
6 | O=C(Nc1nccs1)c1ccc(F)c2ccc(-c3cccc(C(F)(F)F)c3)nc12 [Compound 66] | C (EC1.5>25 uM) | –
7 | O=C(Nc1cccc(N2CCOCC2)n1)c1cccc2ccc(-c3cccc(C(F)(F)F)c3)nc12 [Compound 319] | A (EC1.5<1.0 uM) | A (Fold activation >200%)
8 | O=C(Nc1nccs1)c1cccc2ccc(-c3ccc(C(F)(F)F)cc3)nc12 [Compound 96] | C (EC1.5>25 uM) | –
9 | O=C(Nc1ccncn1)c1cccc2ncc(-c3cccc(OC(F)(F)F)c3)nc12 [Compound 128] | C (EC1.5>25 uM) | –
10 | O=C(Nc1ccncn1)c1cccc2cnc(-c3cccnc3)nc12 [Compound 296] | C (EC1.5>25 uM) | –
11 | O=C(Nc1nccs1)c1c(F)ccc2ccc(-c3cccc(C(F)(F)F)c3)nc12 [Compound 83] | B (EC1.5 1-25 uM) | A (Fold activation >200%)
12 | O=C(Nc1nccs1)c1cccc2ccc(-c3ccnc(N4CCOCC4)c3)nc12 [Compound 209] | A (EC1.5<1.0 uM) | B (Fold Activation <200%)
13 | O=C(Nc1cccc(OC2CCNCC2)c1)c1cccc2ccc(-c3cccc(C(F)(F)F)c3)nc12 [Compound 256] | A (EC1.5<1.0 uM) | A (Fold activation >200%)
14 | O=C(Nc1cccc(OC[C@@H](O)CO)c1)c1cccc2ccc(-c3cccc(C(F)(F)F)c3)nc12 [Compound 207] | A (EC1.5<1.0 uM) | A (Fold activation >200%)
15 | O=C(Nc1cccc(CN2CCCC2)c1)c1cccc2ccc(-c3cccc(C(F)F)c3)nc12 [Compound 316] | A (EC1.5<1.0 uM) | A (Fold activation >200%)
16 | O=C(Nc1cccnc1)c1cccc2cnc(-c3cccc(N4CCOCC4)c3)nc12 [Compound 314] | A (EC1.5<1.0 uM) | B (Fold Activation <200%)
17 | O=C(Nc1ccncn1)c1cccc2ccc(-c3cccc(OC4CCNCC4)c3)nc12 [Compound 133] | A (EC1.5<1.0 uM) | A (Fold activation >200%)
18 | O=C(Nc1ccccn1)c1cccc2ncc(-c3cccc(C(F)(F)F)c3)nc12 [Compound 129] | A (EC1.5<1.0 uM) | B (Fold Activation <200%)
19 | Cc1cncc(-c2ccc3cccc(C(=O)Nc4nccs4)c3n2)c1 [Compound 242] | C (EC1.5>25 uM) | –
20 | O=C(NC1CN2CCC1CC2)c1cccc2ccc(-c3cccc(C(F)(F)F)c3)nc12 (stereo not drawn) [Compound 88] | C (EC1.5>25 uM) | –
21 | Cc1nnc(NC(=O)c2cccc3ccc(-c4cccc(N5CCOCC5)c4)nc23)s1 [Compound 252] | A (EC1.5<1.0 uM) | A (Fold activation >200%)

Results, then the molecule that gave them:

Row | EC1.5 (concentration of test compound that results in 150% activation of SIRT1) | % Fold Act. (percent maximum fold activation) | SMILES
22 | C (EC1.5>25 uM) | – | O=C(Nc1cccc2ccc(-c3ccc(F)c(C(F)(F)F)c3)nc12)c1cscn1 [Compound 158]
23 | C (EC1.5>25 uM) | – | O=C(Nc1cccc2ccc(-c3cc(F)cc(C(F)(F)F)c3)nc12)c1ccncc1 [Compound 160]
24 | A (EC1.5<1.0 uM) | B (Fold Activation <200%) | O=C(Nc1ccccn1)Nc1cccc2ccc(-c3cccc(OC(F)(F)F)c3)nc12 [Compound 46]
25 | C (EC1.5>25 uM) | – | O=C(Nc1cccc2ccc(-c3cc(F)cc(F)c3)nc12)c1cscn1 [Compound 78]
26 | C (EC1.5>25 uM) | – | FC(F)(F)Oc1cccc(-c2ccc3cccc(NCc4nccs4)c3n2)c1 [Compound 140]
27 | B (EC1.5 1-25 uM) | A (Fold activation >200%) | O=C(O)c1csc(NC(=O)c2cccc3ccc(-c4cccc(C(F)(F)F)c4)nc23)n1 [Compound 101]
28 | A (EC1.5<1.0 uM) | B (Fold Activation <200%) | O=C(Nc1cccc2ccc(-c3ccc(F)c(C(F)(F)F)c3)nc12)c1ccccn1 [Compound 154]
29 | A (EC1.5<1.0 uM) | B (Fold Activation <200%) | O=C(Nc1cccc2ccc(-c3cccc(C(F)(F)F)c3)nc12)c1cnccn1 [Compound 4]
30 | C (EC1.5>25 uM) | – | N#Cc1cccc(-c2ccc3cccc(NC(=O)c4cscn4)c3n2)c1 [Compound 80]
31 | A (EC1.5<1.0 uM) | A (Fold activation >200%) | O=C(Nc1cccc2ccc(-c3cccc(CN4CCOCC4)c3)nc12)c1cscn1 [Compound 120]
32 | A (EC1.5<1.0 uM) | A (Fold activation >200%) | O=C(Nc1cnccn1)c1cccc2ccc(-c3cccc(C(F)(F)F)c3)nc12 [Compound 16]
